Source: US4788211A, “Antifungal compound and AFC complex produced from actinomadura SCC 1838” (priority 1987, dated 1988)
≈ marks a conversion by molar mass, not a printed value.

Columns and labels:
Candida (seven species) = experiment: in vitro antifungal activity (geometric mean MIC), Candida; type: cell-based; conditions: for MIC: Candida, Candida (seven species)
Excerpt: (§1) The in vitro antifungal results are summarized in Table II and provide the geometric mean MIC (mcg/mL).

[1] = system: Dermatophytes (six species); experiment: in vitro antifungal activity (geometric mean MIC), dermatophytes; type: cell-based; conditions: for MIC: Dermatophytes (six species)
Excerpt: as §1

Candida = experiment: intravaginal Candida infection in hamsters; type: in vivo
iv LD50 in mice = conditions: mouse, in vivo
[2] = SDB (Sabouraud dextrose broth medium)

Molecule `N=C(N)NCCCCCCCCC(O)CCCCCCCC1NC(=N)NC1CC(O)CNC(=N)N` (stereo not drawn) [compound of this invention] has an MIC (Candida (seven species); EMEM (Eagles Minimum Essential Medium)) of less than 0.03 mg/L, an MIC (Candida (seven species); MA Medium) of no more than 1.4 mg/L and an MIC (Candida (seven species); [2]) of no less than 58 mg/L. For the same molecule, the “in vitro antifungal activity” value (Candida (seven species); seven species of Candida) was “very good in vitro antifungal activity”, the MIC ([1]; MA Medium) was 2.5 mg/L (≈ 5.02 µM) and the MIC [1, 2] was no more than 0.13 mg/L. For the same molecule, the “in vitro antifungal activity” value ([1]; six species of dermatophytes) was “very good in vitro antifungal activity”, the “activity against an intravaginal Candida infection” value (Candida) was “slight activity” and the LD50 (iv LD50 in mice) was roughly 1.5 mg/kg.
